Test results reported in US20220047773A1, “SELF-ELIMINATING COATINGS” (Interface Biologics, Inc., priority 2007, published 2022).

Assay: Partitioning in 1-octanol/PBS system
Format: physicochemical
Description: The partitioning of Compounds synthesized in Examples 1-13 was measured in a 1-octanol/PBS system. The partitioning correlates with the lipophilicity of the Compounds, and is used to predict the adsorption and distribution of Compounds under investigation. 1-octanol and PBS were thoroughly mixed to provide PBS-saturated 1-octanol in the top phase and 1-octanol-saturated PBS in the bottom phase. Solutions of Compounds 1, 2, 3, 6, 7, 8, 9, 10, 11, 12, 16, PTX, and SIBS (0.05 mL) were added to each vial of 1-octanol/PBS. The vials were rocked for 4 hours, ensuring good contact between the phases. An aliquot of the organic phase from each sample was then analyzed by GPC (THF mobile phase, RI), which had been calibrated using known concentrations of each compound. The area under the RI peak was used to estimate the concentration of each compound in the organic phase. The mass of each Compound was then used to calculate the weight percentage in organic phase by the following formula: (mass of Compound in 1-octanol phase/total mass)×100%. The partition coefficient was calculated according to the following formula: log([Compound in 1-octanol]/[Compound in PBS]). […]

logD at 4 h: 1
wt % in 1-octanol (1-octanol/PBS, rocked 4 hours, GPC of organic phase): 94%
SMILES: CC(=O)O[C@H]1C(=O)[C@@]2(C)[C@H]([C@H](OC(=O)c3ccccc3)[C@]3(O)C[C@H](OC(=O)[C@H](O)[C@@H](NC(=O)c4ccccc4)c4ccccc4)C(C)=C1C3(C)C)[C@]1(OC(C)=O)CO[C@@H]1C[C@@H]2O [PTX, paclitaxel, reference compound]
